From patent US7402548B2, “Benzoxazole compounds, process for producing the same and herbicides” (Kyoyu Agri Co., Ltd., priority 2000, dated 2008)

What was measured:
barnyard grass [1] = assay: Herbicidal test for paddy field; assay type: in vivo, Eschinochloa crusgalli; conditions: 500 g/ha, dropwise addition to paddy water at 1.5 leaf stage of barnyard grass; glass house 25° C., 3 weeks; rank 0-5 vs non-treated district
Protocol: (§1) Wagner pots, each having an area of 1/5000 are, were packed with Ube soil (alluvial soil) and planted with seeds or tubers of young rice plant, barnyard grass, bulrush, Cyperus serotinus Rottb., arrowhead and monochoria. Then, the pots were filled with water to a depth of 3 cm.
(§2) Each wettable powder of the desired Compounds (I) shown in Tables 1 to 21, 24, 25, 28 and 29 prepared in accordance with Example 2 was diluted with water containing a surfactant (0.05%) and subjected to dropwise addition treatment by using pipet so that an effective concentration of the compound (I) in each herbicide became 500 g/ha at 1.5 leaf stage of barnyard grass.
(§3) These plants were controlled in a glass house at an average temperature of 25° C. for 3 weeks, and then herbicidal effects thereof were investigated.
(§4) The herbicidal effects are evaluated according to the following 6 ranks as compared with non-treated district. (0: normal development, 1: Less damaged, 2: Slightly damaged, 3: Moderately damaged, 4: Severely damaged, 5: All killed). Incidentally, “-” in the column means not investigated.

bulrush = assay: Herbicidal test for paddy field; assay type: in vivo, Scrips juncoides; conditions: 500 g/ha, dropwise addition to paddy water at 1.5 leaf stage of barnyard grass; glass house 25° C., 3 weeks; rank 0-5 vs non-treated district
Protocol: as §1, §2, §3, §4

Cyperus serotinus Rottb. = assay: Herbicidal test for paddy field; assay type: in vivo; conditions: 500 g/ha, dropwise addition to paddy water at 1.5 leaf stage of barnyard grass; glass house 25° C., 3 weeks; rank 0-5 vs non-treated district
Protocol: as §1, §2, §3, §4

corn [2] = assay: Soil treatment test for upland field; assay type: in vivo; parameters: key: 0 = normal development, 5 = all killed; conditions: 500 g/ha, 3 weeks, glass house 25° C.
Method in brief: (§5)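 Seeds were sown in alluvial soil in pots, and a wettable powder diluted in water with 0.05% surfactant was sprayed evenly on the soil surface at 500 g/ha. Plants were kept in a glass house at about 25° C for 3 weeks, then damage was scored 0–5 against untreated controls.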

solgum [3] = assay: Soil treatment test for upland field; assay type: in vivo; parameters: key: 0 = normal development, 5 = all killed; conditions: 500 g/ha, 3 weeks, glass house 25° C.
Method in brief: as §5

soybean [4] = assay: Soil treatment test for upland field; assay type: in vivo; parameters: key: 0 = normal development, 5 = all killed; conditions: 500 g/ha, 3 weeks, glass house 25° C.
Method in brief: as §5

sugar beat [5] = assay: Soil treatment test for upland field; assay type: in vivo; parameters: key: 0 = normal development, 5 = all killed; conditions: 500 g/ha, 3 weeks, glass house 25° C.
Method in brief: as §5

wheat [6] = assay: Soil treatment test for upland field; assay type: in vivo; parameters: key: 0 = normal development, 5 = all killed; conditions: 500 g/ha, 3 weeks, glass house 25° C.
Method in brief: as §5

Large crabgrass [7] = assay: Soil treatment test for upland field; assay type: in vivo, Digitaria adscendens; parameters: key: 0 = normal development, 5 = all killed; conditions: 500 g/ha, 3 weeks, glass house 25° C.
Method in brief: as §5

barnyard grass [8] = assay: Soil treatment test for upland field; assay type: in vivo, Eschinochloa crusgalli; parameters: key: 0 = normal development, 5 = all killed; conditions: 500 g/ha, 3 weeks, glass house 25° C.
Method in brief: as §5

green foxtail [9] = assay: Soil treatment test for upland field; assay type: in vivo, Setaria viridis; parameters: key: 0 = normal development, 5 = all killed; conditions: 500 g/ha, 3 weeks, glass house 25° C.
Method in brief: as §5

blackgrass [10] = assay: Soil treatment test for upland field; assay type: in vivo, Alopecurus aegualis; parameters: key: 0 = normal development, 5 = all killed; conditions: 500 g/ha, 3 weeks, glass house 25° C.
Method in brief: as §5

annual bluegrass [11] = assay: Soil treatment test for upland field; assay type: in vivo, Poa annua; parameters: key: 0 = normal development, 5 = all killed; conditions: 500 g/ha, 3 weeks, glass house 25° C.
Method in brief: as §5

common lambsquarters [12] = assay: Soil treatment test for upland field; assay type: in vivo, Chenopodium album; parameters: key: 0 = normal development, 5 = all killed; conditions: 500 g/ha, 3 weeks, glass house 25° C.
Method in brief: as §5

livid amaranth [13] = assay: Soil treatment test for upland field; assay type: in vivo, Amaranthus lividus; parameters: key: 0 = normal development, 5 = all killed; conditions: 500 g/ha, 3 weeks, glass house 25° C.
Method in brief: as §5

velvetleaf [14] = assay: Soil treatment test for upland field; assay type: in vivo, Abutilon theophrasti; parameters: key: 0 = normal development, 5 = all killed; conditions: 500 g/ha, 3 weeks, glass house 25° C.
Method in brief: as §5

morning glory [15] = assay: Soil treatment test for upland field; assay type: in vivo, Ipomoea spps.; parameters: key: 0 = normal development, 5 = all killed; conditions: 500 g/ha, 3 weeks, glass house 25° C.
Method in brief: as §5

corn [16] = assay: Foliar spread test for upland field; assay type: in vivo; parameters: key: 0 = normal development, 5 = all killed (6 ranks vs. untreated); conditions: foliar spray, 500 ppm, 3 weeks, glass house 25° C.
Method in brief: (§6)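 Plants grown about 2 weeks at 25 °C in volcanic ash soil were sprayed with wettable powder diluted to 500 ppm in water with 0.5% surfactant. After 3 weeks at 25 °C, damage was scored 0 (normal) to 5 (all killed) against untreated plants.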

cotton = assay: Foliar spread test for upland field; assay type: in vivo; parameters: key: 0 = normal development, 5 = all killed (6 ranks vs. untreated); conditions: foliar spray, 500 ppm, 3 weeks, glass house 25° C.
Method in brief: as §6

solgum [17] = assay: Foliar spread test for upland field; assay type: in vivo; parameters: key: 0 = normal development, 5 = all killed (6 ranks vs. untreated); conditions: foliar spray, 500 ppm, 3 weeks, glass house 25° C.
Method in brief: as §6

soybean [18] = assay: Foliar spread test for upland field; assay type: in vivo; parameters: key: 0 = normal development, 5 = all killed (6 ranks vs. untreated); conditions: foliar spray, 500 ppm, 3 weeks, glass house 25° C.
Method in brief: as §6

sugar beat [19] = assay: Foliar spread test for upland field; assay type: in vivo; parameters: key: 0 = normal development, 5 = all killed (6 ranks vs. untreated); conditions: foliar spray, 500 ppm, 3 weeks, glass house 25° C.
Method in brief: as §6

wheat [20] = assay: Foliar spread test for upland field; assay type: in vivo; parameters: key: 0 = normal development, 5 = all killed (6 ranks vs. untreated); conditions: foliar spray, 500 ppm, 3 weeks, glass house 25° C.
Method in brief: as §6

Large crabgrass [21] = assay: Foliar spread test for upland field; assay type: in vivo, Digitaria adscendens; parameters: key: 0 = normal development, 5 = all killed (6 ranks vs. untreated); conditions: foliar spray, 500 ppm, 3 weeks, glass house 25° C.
Method in brief: as §6

barnyardgrjass = assay: Foliar spread test for upland field; assay type: in vivo, Eschinochloa crusgalli; parameters: key: 0 = normal development, 5 = all killed (6 ranks vs. untreated); conditions: foliar spray, 500 ppm, 3 weeks, glass house 25° C.
Method in brief: as §6

green foxtail [22] = assay: Foliar spread test for upland field; assay type: in vivo, Setaria viridis; parameters: key: 0 = normal development, 5 = all killed (6 ranks vs. untreated); conditions: foliar spray, 500 ppm, 3 weeks, glass house 25° C.
Method in brief: as §6

blackgrass [23] = assay: Foliar spread test for upland field; assay type: in vivo, Alopecurus aegualis; parameters: key: 0 = normal development, 5 = all killed (6 ranks vs. untreated); conditions: foliar spray, 500 ppm, 3 weeks, glass house 25° C.
Method in brief: as §6

annual bluegrass [24] = assay: Foliar spread test for upland field; assay type: in vivo, Poa annua; parameters: key: 0 = normal development, 5 = all killed (6 ranks vs. untreated); conditions: foliar spray, 500 ppm, 3 weeks, glass house 25° C.
Method in brief: as §6

common lambsquarters [25] = assay: Foliar spread test for upland field; assay type: in vivo, Chenopodium album; parameters: key: 0 = normal development, 5 = all killed (6 ranks vs. untreated); conditions: foliar spray, 500 ppm, 3 weeks, glass house 25° C.
Method in brief: as §6

livid amaranth [26] = assay: Foliar spread test for upland field; assay type: in vivo, Amaranthus lividus; parameters: key: 0 = normal development, 5 = all killed (6 ranks vs. untreated); conditions: foliar spray, 500 ppm, 3 weeks, glass house 25° C.
Method in brief: as §6

velvetleaf [27] = assay: Foliar spread test for upland field; assay type: in vivo, Abutilon theophrasti; parameters: key: 0 = normal development, 5 = all killed (6 ranks vs. untreated); conditions: foliar spray, 500 ppm, 3 weeks, glass house 25° C.
Method in brief: as §6

morning glory [28] = assay: Foliar spread test for upland field; assay type: in vivo, Ipomoea spps.; parameters: key: 0 = normal development, 5 = all killed (6 ranks vs. untreated); conditions: foliar spray, 500 ppm, 3 weeks, glass house 25° C.
Method in brief: as §6

`CCC(=Cc1cccc(C(F)(F)F)c1)c1nc2cc(F)c(F)cc2o1` [I-c-111] was tested, and the “Effects Barnyardgrass” value (barnyard grass [1]) was 5, the “Effects Bulrush” value (bulrush) was 4 and the “Effects Cyperus serotinus Rottb.” value (Cyperus serotinus Rottb.) was 1. The “Effects Corn” value (corn [2]) was 2, the “Effects Solgum” value (solgum [3]) was 3 and the “Effects Soybean” value (soybean [4]) was 5. For the same compound, the “Effects Sugar beat” value (sugar beat [5]) was 5, the “Effects Wheat” value (wheat [6]) was 5 and the “Effects Large crabgrass” value (Large crabgrass [7]) was 5. The “Effects Barnyardgrass” value (barnyard grass [8]) was 5, the “Effects Green foxtail” value (green foxtail [9]) was 5 and the “Effects Blackgrass” value (blackgrass [10]) was 5. The “Effects Annual bluegrass” value (annual bluegrass [11]) was 5, the “Effects Common lambsquarters” value (common lambsquarters [12]) was 5 and the “Effects Livid amaranth” value (livid amaranth [13]) was 5. For the same compound, the “Effects Velvetleaf” value (velvetleaf [14]) was 5, the “Effects Morning glory” value (morning glory [15]) was 4 and the “Effects Corn” value (corn [16]) was 3. The “Effects Sotton” value (cotton) was 4, the “Effects Solgum” value (solgum [17]) was 4 and the “Effects Soybean” value (soybean [18]) was 5. The “Effects Sugar beat” value (sugar beat [19]) was 4, the “Effects Wheat” value (wheat [20]) was 3 and the “Effects Large crabgrass” value (Large crabgrass [21]) was 4. The “Effects Barnyardgrass” value (barnyardgrjass) was 3, the “Effects Green foxtail” value (green foxtail [22]) was 4 and the “Effects Blackgrass” value (blackgrass [23]) was 4. For the same compound, the “Effects Annual bluegrass” value (annual bluegrass [24]) was 4, the “Effects Common lambsquarters” value (common lambsquarters [25]) was 5 and the “Effects Livid amaranth” value (livid amaranth [26]) was 5. The “Effects Velvetleaf” value (velvetleaf [27]) was 3 and the “Effects Morning glory” value (morning glory [28]) was 5.
